Assays:
Test in all cases: Kinase profiling
Assay type in all cases: binding
Details in all cases: read-out: % Ctrl @ 1000 nM
[1] = molecular target: GRK4 (Homo sapiens, UniProt P32298)
[2] = molecular target: PDPK1 (Homo sapiens, UniProt O15530)
[3] = molecular target: CAMK1 (Homo sapiens, UniProt Q14012)
[4] = molecular target: FGFR3 (Homo sapiens, UniProt P22607)
[5] = molecular target: ASK2 (Homo sapiens, UniProt O95382)
[6] = molecular target: AKT1 (Homo sapiens, UniProt P31749)
[7] = molecular target: JNK3 (Homo sapiens, UniProt P53779)
[8] = molecular target: PIP5K2C (Homo sapiens, UniProt Q8TBX8)
[9] = molecular target: T1, MEK4 (Homo sapiens, UniProt P45985)
T1 construct: T7 phage fusion (stated for most kinases of the panel only); made in house; host or cells: T7 phage in E. coli (BL21-derived) or HEK-293 cells

[10] = molecular target: PRKD1 (Homo sapiens, UniProt Q15139)
[11] = molecular target: PIK3CB (Homo sapiens, UniProt P42338)
[12] = molecular target: SGK2 (Homo sapiens, UniProt Q9HBY8)
[13] = molecular target: T2, NEK7 (Homo sapiens, UniProt Q8TDX7)
T2 construct: T7 phage fusion (said for most assays); made in house

[14] = molecular target: T3, MST2 (Homo sapiens, UniProt Q13188)
T3 construct: T7 phage fusion (stated for most kinases of the panel only); made in house; host or cells: T7 phage in E. coli (BL21-derived) or HEK-293 cells

[15] = molecular target: p38-delta (Homo sapiens, UniProt O15264)
[16] = molecular target: ABL1 (F317L)-nonphosphorylated (Homo sapiens, UniProt P00519, F317L)
[17] = molecular target: ROCK2 (Homo sapiens, UniProt O75116)
[18] = molecular target: MAPKAPK5 (Homo sapiens, UniProt Q8IW41)
[19] = molecular target: T4, MET (M1250T) (Homo sapiens, UniProt P08581, M1250T)
T4 construct: T7 phage fusion (stated for most kinases of the panel only); made in house; host or cells: T7 phage in E. coli (BL21-derived) or HEK-293 cells

[20] = molecular target: LCK (Homo sapiens, UniProt P06239)
[21] = molecular target: CSNK2A2 (Homo sapiens, UniProt P19784)
[22] = molecular target: RAF1 (Homo sapiens, UniProt P04049)
[23] = molecular target: RPS6KA5 (Kin.Dom.2-C-terminal) (Homo sapiens, UniProt O75582)
[24] = molecular target: LKB1 (Homo sapiens, UniProt Q15831)
[25] = molecular target: PIK3CA (Homo sapiens, UniProt P42336)
[26] = molecular target: ZAP70 (Homo sapiens, UniProt P43403)
[27] = molecular target: FLT1 (Homo sapiens, UniProt P17948)
[28] = molecular target: T5, MTOR (Homo sapiens, UniProt P42345)
T5 construct: T7 phage fusion (said for most assays); made in house

[29] = molecular target: PFPK5 (P.falciparum) (Plasmodium falciparum, UniProt P61075)
[30] = molecular target: CDK11 (Homo sapiens, UniProt Q9BWU1)
[31] = molecular target: PIK3CA (H1047Y) (Homo sapiens, UniProt P42336, H1047Y)
[32] = molecular target: CAMK2B (Homo sapiens, UniProt Q13554)
[33] = molecular target: FLT3 (D835H) (Homo sapiens, UniProt P36888, D835H)
[34] = molecular target: EPHB3 (Homo sapiens, UniProt P54753)
[35] = molecular target: EPHA4 (Homo sapiens, UniProt P54764)
[36] = molecular target: FGFR4 (Homo sapiens, UniProt P22455)
[37] = molecular target: IKK-epsilon (Homo sapiens, UniProt Q14164)
[38] = molecular target: T6, MEK3 (Homo sapiens, UniProt P46734)
T6 construct: T7 phage fusion (stated for most kinases of the panel only); made in house; host or cells: T7 phage in E. coli (BL21-derived) or HEK-293 cells

[39] = molecular target: AXL (Homo sapiens, UniProt P30530)

Chain of RPS6KA5 (Kin.Dom.2-C-terminal) (O75582 426-687 limits assumed): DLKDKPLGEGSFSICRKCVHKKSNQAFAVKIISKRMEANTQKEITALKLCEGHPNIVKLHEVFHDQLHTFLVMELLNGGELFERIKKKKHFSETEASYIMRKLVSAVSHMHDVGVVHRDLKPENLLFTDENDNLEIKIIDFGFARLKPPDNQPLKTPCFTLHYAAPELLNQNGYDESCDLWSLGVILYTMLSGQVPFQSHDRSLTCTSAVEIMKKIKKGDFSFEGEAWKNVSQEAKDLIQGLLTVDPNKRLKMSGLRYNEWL
Chain of PIK3CB (P42338 whole entry): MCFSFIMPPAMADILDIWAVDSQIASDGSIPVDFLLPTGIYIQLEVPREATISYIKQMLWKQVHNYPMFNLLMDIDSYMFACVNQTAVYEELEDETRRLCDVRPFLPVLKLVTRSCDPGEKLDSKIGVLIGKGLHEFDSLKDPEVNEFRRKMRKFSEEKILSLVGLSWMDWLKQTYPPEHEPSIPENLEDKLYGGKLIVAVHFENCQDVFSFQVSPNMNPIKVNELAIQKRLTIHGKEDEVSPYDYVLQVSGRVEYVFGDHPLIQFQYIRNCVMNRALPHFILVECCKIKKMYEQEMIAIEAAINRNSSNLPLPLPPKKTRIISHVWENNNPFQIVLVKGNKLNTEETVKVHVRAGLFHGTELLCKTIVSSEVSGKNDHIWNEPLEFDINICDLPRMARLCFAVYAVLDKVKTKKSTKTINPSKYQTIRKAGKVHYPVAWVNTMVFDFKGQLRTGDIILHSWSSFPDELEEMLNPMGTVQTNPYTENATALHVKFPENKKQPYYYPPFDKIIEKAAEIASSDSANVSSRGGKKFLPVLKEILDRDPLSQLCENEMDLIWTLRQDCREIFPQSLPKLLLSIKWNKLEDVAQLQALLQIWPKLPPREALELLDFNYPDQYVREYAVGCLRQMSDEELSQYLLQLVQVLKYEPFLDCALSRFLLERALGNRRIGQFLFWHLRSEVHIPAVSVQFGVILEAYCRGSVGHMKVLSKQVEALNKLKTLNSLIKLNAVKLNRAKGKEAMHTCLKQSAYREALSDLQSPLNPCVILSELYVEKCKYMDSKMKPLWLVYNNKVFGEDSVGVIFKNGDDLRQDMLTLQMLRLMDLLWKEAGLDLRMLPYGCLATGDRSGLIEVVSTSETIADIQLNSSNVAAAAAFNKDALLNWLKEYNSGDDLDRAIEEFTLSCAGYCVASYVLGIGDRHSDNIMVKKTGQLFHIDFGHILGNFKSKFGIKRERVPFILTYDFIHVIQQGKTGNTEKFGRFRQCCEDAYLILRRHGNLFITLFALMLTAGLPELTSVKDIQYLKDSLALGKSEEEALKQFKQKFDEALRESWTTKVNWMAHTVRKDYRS
Chain of CSNK2A2 (P19784 whole entry): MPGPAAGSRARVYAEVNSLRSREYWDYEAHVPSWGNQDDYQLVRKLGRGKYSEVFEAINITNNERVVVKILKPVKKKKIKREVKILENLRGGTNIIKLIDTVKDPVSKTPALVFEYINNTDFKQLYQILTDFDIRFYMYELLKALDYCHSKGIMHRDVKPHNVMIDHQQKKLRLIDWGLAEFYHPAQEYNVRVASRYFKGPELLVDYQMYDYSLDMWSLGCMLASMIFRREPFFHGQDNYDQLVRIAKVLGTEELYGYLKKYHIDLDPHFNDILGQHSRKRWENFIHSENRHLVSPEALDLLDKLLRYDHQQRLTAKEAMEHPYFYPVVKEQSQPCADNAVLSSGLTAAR
Chain of AKT1 (P31749 whole entry): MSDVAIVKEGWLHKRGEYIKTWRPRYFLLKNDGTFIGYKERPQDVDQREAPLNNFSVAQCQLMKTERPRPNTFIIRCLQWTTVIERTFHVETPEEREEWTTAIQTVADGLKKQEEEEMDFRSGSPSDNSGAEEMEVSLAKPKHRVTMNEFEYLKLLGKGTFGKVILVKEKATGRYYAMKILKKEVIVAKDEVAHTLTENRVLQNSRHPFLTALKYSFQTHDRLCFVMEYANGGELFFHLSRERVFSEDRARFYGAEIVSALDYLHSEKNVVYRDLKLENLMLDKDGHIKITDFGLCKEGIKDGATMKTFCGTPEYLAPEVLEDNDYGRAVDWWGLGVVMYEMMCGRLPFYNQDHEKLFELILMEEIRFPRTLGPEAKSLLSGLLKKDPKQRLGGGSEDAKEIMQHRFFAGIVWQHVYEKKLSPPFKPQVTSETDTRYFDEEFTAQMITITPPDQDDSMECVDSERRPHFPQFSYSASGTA
Chain of PRKD1 (Q15139 whole entry): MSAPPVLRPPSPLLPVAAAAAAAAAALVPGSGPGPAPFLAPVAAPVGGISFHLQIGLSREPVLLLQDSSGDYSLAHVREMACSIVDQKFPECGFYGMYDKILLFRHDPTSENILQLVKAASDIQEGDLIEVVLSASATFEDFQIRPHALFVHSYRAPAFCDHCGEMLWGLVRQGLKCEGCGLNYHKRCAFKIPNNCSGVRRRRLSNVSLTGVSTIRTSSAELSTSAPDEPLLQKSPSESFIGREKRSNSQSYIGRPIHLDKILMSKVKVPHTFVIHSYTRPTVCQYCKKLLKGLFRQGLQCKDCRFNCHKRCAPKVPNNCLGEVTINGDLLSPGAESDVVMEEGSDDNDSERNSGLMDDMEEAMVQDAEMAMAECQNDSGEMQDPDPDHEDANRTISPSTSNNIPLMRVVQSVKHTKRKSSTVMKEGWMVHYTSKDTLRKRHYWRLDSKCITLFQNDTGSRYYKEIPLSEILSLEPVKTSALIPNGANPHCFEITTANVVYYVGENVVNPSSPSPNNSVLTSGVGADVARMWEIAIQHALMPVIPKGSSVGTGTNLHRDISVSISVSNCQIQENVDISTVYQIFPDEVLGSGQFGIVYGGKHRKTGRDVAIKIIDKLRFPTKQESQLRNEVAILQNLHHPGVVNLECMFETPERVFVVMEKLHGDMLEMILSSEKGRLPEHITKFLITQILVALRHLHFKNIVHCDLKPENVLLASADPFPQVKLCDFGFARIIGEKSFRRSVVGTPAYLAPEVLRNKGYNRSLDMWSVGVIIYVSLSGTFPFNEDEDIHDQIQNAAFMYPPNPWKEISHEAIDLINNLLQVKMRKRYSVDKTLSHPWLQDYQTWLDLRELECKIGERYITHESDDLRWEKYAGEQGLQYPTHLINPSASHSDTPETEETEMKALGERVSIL
T2 sequence (Q8TDX7 whole entry, the tested form may be a part): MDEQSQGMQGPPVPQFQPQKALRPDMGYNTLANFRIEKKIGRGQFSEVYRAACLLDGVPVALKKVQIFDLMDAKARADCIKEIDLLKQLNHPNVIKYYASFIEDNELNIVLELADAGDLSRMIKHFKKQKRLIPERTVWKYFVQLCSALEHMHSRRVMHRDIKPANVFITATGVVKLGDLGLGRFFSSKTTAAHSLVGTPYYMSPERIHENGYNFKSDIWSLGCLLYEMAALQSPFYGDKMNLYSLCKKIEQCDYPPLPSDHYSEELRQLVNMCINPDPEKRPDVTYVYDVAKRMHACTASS
Chain of ZAP70 (P43403 whole entry): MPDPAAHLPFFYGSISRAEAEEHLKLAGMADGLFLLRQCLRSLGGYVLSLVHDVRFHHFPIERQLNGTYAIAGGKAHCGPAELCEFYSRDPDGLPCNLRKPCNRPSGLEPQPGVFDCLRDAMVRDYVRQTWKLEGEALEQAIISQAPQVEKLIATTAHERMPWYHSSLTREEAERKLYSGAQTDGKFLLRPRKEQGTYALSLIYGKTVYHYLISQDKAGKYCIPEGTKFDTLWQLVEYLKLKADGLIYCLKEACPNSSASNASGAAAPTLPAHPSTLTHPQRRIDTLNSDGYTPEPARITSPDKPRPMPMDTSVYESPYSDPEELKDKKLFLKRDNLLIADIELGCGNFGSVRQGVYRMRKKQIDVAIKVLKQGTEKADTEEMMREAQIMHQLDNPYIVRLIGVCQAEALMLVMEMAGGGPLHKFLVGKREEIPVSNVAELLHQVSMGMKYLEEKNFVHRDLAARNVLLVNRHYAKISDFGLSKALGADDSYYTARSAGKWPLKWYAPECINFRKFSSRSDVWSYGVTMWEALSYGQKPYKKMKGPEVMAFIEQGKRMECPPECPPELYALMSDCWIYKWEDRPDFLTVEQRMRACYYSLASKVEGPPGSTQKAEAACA
Chain of FGFR3 (P22607 23-806): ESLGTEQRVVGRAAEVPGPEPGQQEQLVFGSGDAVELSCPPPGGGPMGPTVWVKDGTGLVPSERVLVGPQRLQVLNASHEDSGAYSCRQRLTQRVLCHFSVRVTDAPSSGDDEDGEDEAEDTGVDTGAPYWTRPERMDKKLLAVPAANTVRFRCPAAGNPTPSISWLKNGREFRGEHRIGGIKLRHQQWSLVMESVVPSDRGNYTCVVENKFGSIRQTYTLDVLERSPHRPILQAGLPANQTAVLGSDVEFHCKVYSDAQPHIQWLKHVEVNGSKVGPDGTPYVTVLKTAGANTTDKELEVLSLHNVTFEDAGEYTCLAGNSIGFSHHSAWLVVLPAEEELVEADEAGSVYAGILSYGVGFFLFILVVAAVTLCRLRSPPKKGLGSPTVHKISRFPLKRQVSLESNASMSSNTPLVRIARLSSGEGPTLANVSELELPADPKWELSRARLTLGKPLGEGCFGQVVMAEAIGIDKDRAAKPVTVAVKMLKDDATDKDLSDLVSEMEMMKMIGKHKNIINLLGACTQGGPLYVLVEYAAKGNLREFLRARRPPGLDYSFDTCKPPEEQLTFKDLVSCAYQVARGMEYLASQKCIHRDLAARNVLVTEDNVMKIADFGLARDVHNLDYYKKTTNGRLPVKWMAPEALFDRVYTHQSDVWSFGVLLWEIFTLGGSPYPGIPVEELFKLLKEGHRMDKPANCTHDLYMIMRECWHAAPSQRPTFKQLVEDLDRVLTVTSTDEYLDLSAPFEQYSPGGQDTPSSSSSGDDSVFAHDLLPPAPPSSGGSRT

SMILES: Cc1cc(Oc2cc(NC(=O)C3CC3)ncn2)ccc1NC(=O)Nc1ccc(Cl)c(C(F)(F)F)c1 [CBT-102]
- remaining activity at 1 µM [1]: 100%
- remaining activity at 1 µM [2]: 100%
- remaining activity at 1 µM [3]: 74%
- remaining activity at 1 µM [4]: 87%
- remaining activity at 1 µM [5]: 94%
- remaining activity at 1 µM [6]: 100%
- remaining activity at 1 µM [7]: 85%
- remaining activity at 1 µM [8]: 85%
- remaining activity at 1 µM [9]: 100%
- remaining activity at 1 µM [10]: 100%
- remaining activity at 1 µM [11]: 100%
- remaining activity at 1 µM [12]: 92%
- remaining activity at 1 µM [13]: 88%
- remaining activity at 1 µM [14]: 92%
- remaining activity at 1 µM [15]: 8.6%
- remaining activity at 1 µM [16]: 16%
- remaining activity at 1 µM [17]: 100%
- remaining activity at 1 µM [18]: 93%
- remaining activity at 1 µM [19]: 84%
- remaining activity at 1 µM [20]: 15%
- remaining activity at 1 µM [21]: 100%
- remaining activity at 1 µM [22]: 3.4%
- remaining activity at 1 µM [23]: 100%
- remaining activity at 1 µM [24]: 100%
- remaining activity at 1 µM [25]: 100%
- remaining activity at 1 µM [26]: 90%
- remaining activity at 1 µM [27]: 0.8%
- remaining activity at 1 µM [28]: 94%
- remaining activity at 1 µM [29]: 100%
- remaining activity at 1 µM [30]: 0%
- remaining activity at 1 µM [31]: 100%
- remaining activity at 1 µM [32]: 97%
- remaining activity at 1 µM [33]: 42%
- remaining activity at 1 µM [34]: 82%
- remaining activity at 1 µM [35]: 49%
- remaining activity at 1 µM [36]: 92%
- remaining activity at 1 µM [37]: 100%
- remaining activity at 1 µM [38]: 90%
- remaining activity at 1 µM [39]: 56%

From patent US20220088016A1, “CANCER TREATMENT USING MULTI-TARGETED KINASE INHIBITOR IN COMBINATION OF PROTEIN KINASE BIOMARKERS” (ZHEJIANG CROWNMAB BIOTECH CO. LTD., priority 2019, published 2022)
